Measured values as given in patent publication US20210261528A1, “SALTS OF (S)-(5-CYCLOBUTOXY-2-METHYL-6-(1-(PIPERIDIN-4-YL)-1H-PYRAZOL-4-YL)-3,4-DIHYDROQUINOLIN-1(2H)-YL)(CYCLOPROPYL)METHANONE AND SOLID FORMS THEREOF” (FORMA Therapeutics, Inc., priority 2018, published 2021).

Assays:
Format in all cases: physicochemical
[1] = Hygroscopicity evaluation by Dynamic Vapor Sorption (DVS) with XRPD of the solids after DVS; settings: for solid form after the DVS test: XRPD of solids after DVS
Experimental: Dynamic Vapor Sorption (DVS) was obtained using a Surface Measurement Systems (SMS) DVS Intrinsic. The relative humidity at 25° C. were calibrated against deliquescence point of LiCl, Mg (NO3)2 and KCl.

[2] = Chemical stability by HPLC-UV at 275 nm and 254 nm (Table 9)
Experimental: High Pressure Liquid Chromatography (HPLC) data were obtained according to Tables 6 or 7, below:
A standard stock was dissolved with diluent in a volumetric flask (e.g., 25 mg in 25 mL). This stock was vortexed and sonicated 10 sec to dissolve, and then diluted 1:10, 1:4, and 1:2 either in volumetric flasks or in HPLC vials to generate a standard curve. […] Where appropriate, a blank was created to accurately replicate the matrix of the analytical sample, and peaks appearing in the blank were identified before integration and quantification using Chemstation software.
The chemical stability of Succinate Form A was determined using HPLC-UV at 275 nm and 254 nm.
The chemical stability of Form G was determined using HPLC-UV at 275 nm and 254 nm.

[3] = Physical stability of Compound 2 Form G over 42 days at varying conditions by XRPD, PLM, DSC/TGA (Table 23)
Experimental: The stability of Compound 2 Form G was tested over 42 days at varying conditions and is reported below in Table 23 and in FIG. 61:
On Day 38, stability samples at 50° C. were exposed to temperatures of approximately 85° C. for 24 hours.

[4] = Aqueous solubility estimation of Compound 2 Form G, Form O and Form I at RT (Example 13, Table 27)
Experimental: Aqueous solubility tests at RT were conducted on the two potential anhydrates, Form G and O, and the hydrated Form I. About 3 mg of each form was weighed into a 2-mL vial. […] of water was added and stirred thoroughly at RT with the speed of 800 RPM.

[5] = Slurry competition between Compound 2 Form G and Form O for stability evaluation (Example 10, Table 24); settings: IPAc and MTBE, RT and 50° C., 24 hours
Experimental: The slurry competition experiments between the two anhydrates, Form G and Form O, were performed in two solvents, IPAc and MTBE, at RT and 50° C. for stability evaluation. Form O was dissolved in IPAc and MTBE respectively to get saturated solutions. Then, similar masses of Form G and Form O were added into a 2-mL vial, upon which the corresponding saturated solution was added to give the slurry, which was stirred at RT or 50° C. for 24 hours. The solids collected were analyzed by XRPD to confirm the form change.

[6] = Slurry turnover of Compound 2 Form B, Form I and Form G (Example 11, Table 25); settings: IPAc and MTBE, RT or 50° C., 24 hours
Experimental: To further study the form identity of Form B and Form I, slurry turnover experiments were performed in two solvents with the addition of Form G. Form B was dissolved in IPAc and MTBE respectively to get saturated solutions. Similar mass of Form B, G and I were weighed into a 2-mL vial, upon which the corresponding saturated solution was added to give the slurry, which was stirred at RT or 50° C. After slurry for 24 hours, the solids obtained were analyzed by XRPD.

[7] = Critical aw between Compound 2 Form G and Form I, slurry turnover in H2O/IPAc (Example 12, Table 26); settings: H2O/IPAc, RT and 50° C., 24 hrs; except aw of 0.8 at RT (close to amorphous)
Experimental: To investigate the critical aw between hydrated Form I and the stable anhydrate, Form G, slurry turnover of Form I and Form G was conducted in a co-solvent system (H2O/IPAc) with different aw at RT and 50° C. Similar mass of Form G and Form I were added into a 2-mL vial, followed by adding solvent and stirring at RT or 50° C. for 24 hrs. The solids obtained were analyzed by XRPD to confirm the form change.

[8] = Slurry conversion of Fumarate Forms A, B and C (Example 6, Table 11); settings: RT, about 4 days
Experimental: Slurry conversion of Fumarate Forms A, B, and C was conducted in three different solvents.

[9] = Aqueous solubility evaluation of Compound 1 salt forms (Example 5, Table 10)
Experimental: For each of the experiments 1 through 5 in Table 10, about 100 mg of solid form was suspended in 1.5 mL of water, and the vial was rolled at RT for about 24 hours (25 r/min). […] Supernatant of experiment 3 was collected by filtration through a 0.45 μm membrane for HPLC analysis. For each of the experiments 6 through 10 in Table 10, about 40 mg of solid form was dissolved in 0.2 mL (0.9 mL for experiment 7) water and then analyzed by HPLC after 24-hour storage at RT.

[10] = ambient conditions and 25° C./60% RH open, 42 days, 254 nm
[11] = 50° C., closed, 42* days (Day 38 excursion to approximately 85° C. for 24 hours)

Question: Which results are given for `C[C@H]1CCc2c(ccc(-c3cnn(C4CCNCC4)c3)c2OC2CCC2)N1C(=O)C1CC1.O=C(O)CCC(=O)O` [Form G, (S)-(5-cyclobutoxy-2-methyl-6-(1-(piperidin-4-yl)-1H-pyrazol-4-yl)-3,4-dihydroquinolin-1(2H)-yl)(cyclopropyl)methanone succinate]?
Answer: solid form after the DVS test ([1]; succinate): amorphous; water absorbed above 70% RH (DVS) ([1]; above 70% RH): about 25.19 % (wt/wt); hygroscopicity (DVS) ([1]; absorption up to 80% RH, 25° C., succinate): high hygroscopicity; claim of the expected Compound 2 content by HPLC-UV ([2]; all stability samples, 275 nm): 95-107 % claim; impurity increase by HPLC-UV [2, 10]: no significant impurity increase; reduction in purity by HPLC-UV [2, 10]: no reduction in purity; DSC endotherm Temp ([3]; 25° C./60% RH open, 1 days): 125.46 °C; DSC endotherm ΔH ([3]; 25° C./60% RH open, 1 days): 66.76 J/g; TGA % weight loss before 150° C. ([3]; 25° C./60% RH open, 1 days): 0.4580%; DSC endotherm Temp ([3]; 25° C./60% RH open, 3 days): 125.61 °C; DSC endotherm ΔH ([3]; 25° C./60% RH open, 3 days): 63.86 J/g; TGA % weight loss before 150° C. ([3]; 25° C./60% RH open, 3 days): 0.5433%; DSC endotherm Temp ([3]; 25° C./60% RH open, 7 days): 125.68 °C; DSC endotherm ΔH ([3]; 25° C./60% RH open, 7 days): 64.19 J/g; TGA % weight loss before 150° C. ([3]; 25° C./60% RH open, 7 days): 0.5129%; DSC endotherm Temp ([3]; 25° C./60% RH open, 14 days): 125.64 °C; DSC endotherm ΔH ([3]; 25° C./60% RH open, 14 days): 65.95 J/g; TGA % weight loss before 150° C. ([3]; 25° C./60% RH open, 14 days): 0.5232%; DSC endotherm Temp ([3]; 25° C./60% RH open, 21 days): 125.94 °C; DSC endotherm ΔH ([3]; 25° C./60% RH open, 21 days): 64.03 J/g; TGA % weight loss before 150° C. ([3]; 25° C./60% RH open, 21 days): 0.6097%; DSC endotherm Temp ([3]; 25° C./60% RH open, 42 days): 126.50 °C; DSC endotherm ΔH ([3]; 25° C./60% RH open, 42 days): 57.76 J/g; TGA % weight loss before 150° C. ([3]; 25° C./60% RH open, 42 days): 0.6016%; flowability by visual assessment ([3]; 50° C. sample after being exposed to higher temperatures): slight reduction in flowability; physical stability (XRPD, DSC/TGA, PLM) ([3]; 50° C. samples, exposed on Day 38 to approximately 85° C. for 24 hours): physically stable; DSC endotherm Temp [3, 11]: 121.80 °C; DSC endotherm ΔH [3, 11]: 51.32 J/g; TGA % weight loss before 150° C. [3, 11]: 0.7707%; DSC endotherm Temp ([3]; 50° C., closed, 1 days): 125.53 °C; DSC endotherm ΔH ([3]; 50° C., closed, 1 days): 67.41 J/g; TGA % weight loss before 150° C. ([3]; 50° C., closed, 1 days): 0.4716%; DSC endotherm Temp ([3]; 50° C., closed, 3 days): 125.97 °C; DSC endotherm ΔH ([3]; 50° C., closed, 3 days): 59.90 J/g; TGA % weight loss before 150° C. ([3]; 50° C., closed, 3 days): 0.4670%; DSC endotherm Temp ([3]; 50° C., closed, 7 days): 125.97 °C; DSC endotherm ΔH ([3]; 50° C., closed, 7 days): 65.47 J/g; TGA % weight loss before 150° C. ([3]; 50° C., closed, 7 days): 0.5022%; DSC endotherm Temp ([3]; 50° C., closed, 14 days): 125.16 °C; DSC endotherm ΔH ([3]; 50° C., closed, 14 days): 64.27 J/g; TGA % weight loss before 150° C. ([3]; 50° C., closed, 14 days): 0.5893%; DSC endotherm Temp ([3]; 50° C., closed, 21 days): 125.21 °C; DSC endotherm ΔH ([3]; 50° C., closed, 21 days): 64.69 J/g; TGA % weight loss before 150° C. ([3]; 50° C., closed, 21 days): 0.5702%; DSC endotherm Temp ([3]; Initial, 0 days): 125.51 °C; DSC endotherm ΔH ([3]; Initial, 0 days): 63.56 J/g; TGA % weight loss before 150° C. ([3]; Initial, 0 days): 0.5459%; flow properties by visual assessment ([3]; ambient 42 days, 25° C./75% RH 42 days, 50° C. 21 days): good flow properties; DSC endotherm Temp ([3]; ambient, closed, 1 days): 125.59 °C; DSC endotherm ΔH ([3]; ambient, closed, 1 days): 62.59 J/g; TGA % weight loss before 150° C. ([3]; ambient, closed, 1 days): 0.5454%; DSC endotherm Temp ([3]; ambient, closed, 3 days): 125.61 °C; DSC endotherm ΔH ([3]; ambient, closed, 3 days): 63.01 J/g; TGA % weight loss before 150° C. ([3]; ambient, closed, 3 days): 0.5338%; DSC endotherm Temp ([3]; ambient, closed, 7 days): 125.41 °C; DSC endotherm ΔH ([3]; ambient, closed, 7 days): 63.00 J/g; TGA % weight loss before 150° C. ([3]; ambient, closed, 7 days): 0.5540%; DSC endotherm Temp ([3]; ambient, closed, 14 days): 125.52 °C; DSC endotherm ΔH ([3]; ambient, closed, 14 days): 63.86 J/g; TGA % weight loss before 150° C. ([3]; ambient, closed, 14 days): 0.4133%; DSC endotherm Temp ([3]; ambient, closed, 21 days): 125.38 °C; DSC endotherm ΔH ([3]; ambient, closed, 21 days): 67.51 J/g; TGA % weight loss before 150° C. ([3]; ambient, closed, 21 days): 0.8085%; DSC endotherm Temp ([3]; ambient, closed, 42 days): 125.35 °C; DSC endotherm ΔH ([3]; ambient, closed, 42 days): 66.56 J/g; TGA % weight loss before 150° C. ([3]; ambient, closed, 42 days): 0.4578%; change in physical form by XRPD, PLM or DSC/TGA ([3]; storage conditions below 75% RH, after 42 days): no significant change in physical form; Observation Initial ([4]; about 3 mg in 50 μL water, initial, succinate): Clear; solubility at 2 h ([4]; thermodynamic from solid, water, stirring 2 hrs at 800 RPM): > 60 mg/mL; form obtained from slurry competition of Form G and Form O (XRPD) [5]: converted to Form G completely; form obtained from slurry of a mixture of Form B, G and I (XRPD) [6]: converted to Form G completely; form obtained from slurry of Form G and Form I at different aw (XRPD) [7]: completely converted to Form G

Question: What does the source list for `C[C@H]1CCc2c(ccc(-c3cnn(C4CCNCC4)c3)c2OC2CCC2)N1C(=O)C1CC1.O=C(O)/C=C/C(=O)O` [Fumarate Type A, B and C]?
Answer: Solid form after slurry conversion ([8]; ACN): Fumarate Form A; Solid form after slurry conversion ([8]; Acetone): Fumarate Form B; Solid form after slurry conversion ([8]; EtOAc): Fumarate Form C

Question: Which solubility in water [9] does the source give for `C[C@H]1CCc2c(ccc(-c3cnn(C4CCNCC4)c3)c2OC2CCC2)N1C(=O)C1CC1.O=C(O)CCC(=O)O` [Succinate Form A, (S)-(5-cyclobutoxy-2-methyl-6-(1-(piperidin-4-yl)-1H-pyrazol-4-yl)-3,4-dihydroquinolin-1(2H)-yl)(cyclopropyl)methanone succinate] here?
Answer: > 100 mg FB/mL

Question: And the “behaviour at high humidity (DVS)” value ([1]; >60% RH, 25° C.)?
Answer: deliquescent

Question: And the “solid form after the DVS test” value ([1]; succinate)?
Answer: amorphous or jelly solids

Question: What about the “chemical degradation by HPLC-UV” value ([2]; after 42 days at 25° C./60% RH) of the same compound?
Answer: did not show significant chemical degradation

Question: What about the “chemical degradation by HPLC-UV” value ([2]; after 42 days at temperatures below 40° C.) of the same compound?
Answer: no significant chemical degradation
